Reference: patent publication EP1025114B1, “3'-N-MODIFIED 6-O-SUBSTITUTED ERYTHROMYCIN KETOLIDE DERIVATIVES HAVING ANTIBACTERIAL ACTIVITY” (priority 1997, dated 1999)
≈ marks a conversion by molar mass, not a printed value.

What was measured:
Assay in all cases: In vitro antibacterial activity, agar dilution MIC
Type in all cases: cell-based
[1] = test system: Haemophilis Influenzae DILL AMP R; details: Haemophilis Influenzae DILL AMP R (organism code WW); BHI agar, 35-37 °C, 20 to 24 hours; unit assumed
Method: (§1) Representative compounds of the present invention were assayed in vitro for antibacterial activity as follows: Twelve petri dishes containing successive aqueous dilutions of the test compound mixed with 10 mL of sterilized Brain Heart infusion (BHI) agar (Difco 0418-01-5) were prepared. Each plate was inoculated with 1:100 (or 1:10 for slow-growing strains, such as Micrococcus and Streptococcus) dilutions of up to 32 different microorganisms, using a Steers replicator block. […] In addition, a control plate, using BHI agar containing no test compound, was prepared and incubated at the beginning and end of each test.
(§2) An additional plate containing a compound having known susceptibility patterns for the organisms being tested and belonging to the same antibiotic class as the test compound was also prepared and incubated as a further control, as well as to provide test-to-test comparability.
(§3) After incubation, each plate was visually inspected. The minimum inhibitory concentration (MIC) was defined as the lowest concentration of drug yielding no growth, a slight haze, or sparsely isolated colonies on the inoculum spot as compared to the growth control.

[2] = test system: Staphylococcus aureus CMX 553; details: Staphylococcus aureus CMX 553 (organism code FF); BHI agar, 35-37 °C, 20 to 24 hours; unit assumed
Method: as §1, §2, §3

[3] = test system: Streptococcus bovis A-5169; details: Streptococcus bovis A-5169 (organism code JJ); BHI agar, 35-37 °C, 20 to 24 hours; unit assumed
Method: as §1, §2, §3

[4] = test system: Streptococcus Pheumoniae 5649; details: Streptococcus Pheumoniae 5649 (organism code ZZA); BHI agar, 35-37 °C, 20 to 24 hours; unit assumed
Method: as §1, §2, §3

[5] = test system: Streptococcus Pheumoniae 5979; details: Streptococcus Pheumoniae 5979 (organism code ZZ); BHI agar, 35-37 °C, 20 to 24 hours; unit assumed
Method: as §1, §2, §3

Escherichia coli SS = Escherichia coli SS (organism code RR); BHI agar, 35-37 °C, 20 to 24 hours; unit assumed
Method: as §1, §2, §3

[6] = test system: Micrococcus luteus ATCC 4698; details: Micrococcus luteus ATCC 4698 (organism code PP); BHI agar, 35-37 °C, 20 to 24 hours; unit assumed
Method: as §1, §2, §3

[7] = test system: Streptococcus pyogenes PIU 2548; details: Streptococcus pyogenes PIU 2548 (organism code NN); BHI agar, 35-37 °C, 20 to 24 hours; unit assumed
Method: as §1, §2, §3

Escherichia coli DC-2 = Escherichia coli DC-2 (organism code SS); BHI agar, 35-37 °C, 20 to 24 hours; unit assumed
Method: as §1, §2, §3

[8] = test system: Streptococcus Pheumoniae ATCC6303; details: Streptococcus Pheumoniae ATCC6303 (organism code XX); BHI agar, 35-37 °C, 20 to 24 hours; unit assumed
Method: as §1, §2, §3

[9] = test system: Staphylococcus aureus CMX 642A; details: Staphylococcus aureus CMX 642A (organism code DD); BHI agar, 35-37 °C, 20 to 24 hours; unit assumed
Method: as §1, §2, §3

Candida albicans CCH 442 = Candida albicans CCH 442 (organism code TT); BHI agar, 35-37 °C, 20 to 24 hours; unit assumed
Method: as §1, §2, §3

[10] = test system: Staphylococcus aureus A5177; details: Staphylococcus aureus A5177 (organism code BB); BHI agar, 35-37 °C, 20 to 24 hours; unit assumed
Method: as §1, §2, §3

[11] = test system: Staphylococcus aureus NCTC10649M; details: Staphylococcus aureus NCTC10649M (organism code EE); BHI agar, 35-37 °C, 20 to 24 hours; unit assumed
Method: as §1, §2, §3

[12] = test system: Staphylococcus aureus A-5278; details: Staphylococcus aureus A-5278 (organism code CC); BHI agar, 35-37 °C, 20 to 24 hours; unit assumed
Method: as §1, §2, §3

[13] = test system: Streptococcus pyogenes 930; details: Streptococcus pyogenes 930 (organism code MM); BHI agar, 35-37 °C, 20 to 24 hours; unit assumed
Method: as §1, §2, §3

[14] = test system: Streptococcus agalactiae CMX 508; details: Streptococcus agalactiae CMX 508 (organism code KK); BHI agar, 35-37 °C, 20 to 24 hours; unit assumed
Method: as §1, §2, §3

[15] = test system: Staphylococcus aureus 1775; details: Staphylococcus aureus 1775 (organism code GG); BHI agar, 35-37 °C, 20 to 24 hours; unit assumed
Method: as §1, §2, §3

[16] = test system: Staphylococcus epidermidis 3519; details: Staphylococcus epidermidis 3519 (organism code HH); BHI agar, 35-37 °C, 20 to 24 hours; unit assumed
Method: as §1, §2, §3

[17] = test system: Streptococcus pyogenes EES61; details: Streptococcus pyogenes EES61 (organism code LL); BHI agar, 35-37 °C, 20 to 24 hours; unit assumed
Method: as §1, §2, §3

Escherichia coli JUHL = Escherichia coli JUHL (organism code QQ); BHI agar, 35-37 °C, 20 to 24 hours; unit assumed
Method: as §1, §2, §3

[18] = test system: Micrococcus luteus ATCC 9341; details: Micrococcus luteus ATCC 9341 (organism code OO); BHI agar, 35-37 °C, 20 to 24 hours; unit assumed
Method: as §1, §2, §3

[19] = test system: Nocardia Asteroides ATCC9970; details: Nocardia Asteroides ATCC9970 (organism code VV); BHI agar, 35-37 °C, 20 to 24 hours; unit assumed
Method: as §1, §2, §3

[20] = test system: Mycobacterium smegmatis ATCC 114; details: Mycobacterium smegmatis ATCC 114 (organism code UU); BHI agar, 35-37 °C, 20 to 24 hours; unit assumed
Method: as §1, §2, §3

[21] = test system: Streptococcus Pheumoniae GYR 1171; details: Streptococcus Pheumoniae GYR 1171 (organism code YY); BHI agar, 35-37 °C, 20 to 24 hours; unit assumed
Method: as §1, §2, §3

[22] = test system: Enterococcus faecium ATCC 8043; details: Enterococcus faecium ATCC 8043 (organism code II); BHI agar, 35-37 °C, 20 to 24 hours; unit assumed
Method: as §1, §2, §3

[23] = test system: Staphylococcus aureus ATCC 6538P; details: Staphylococcus aureus ATCC 6538P (organism code AA); BHI agar, 35-37 °C, 20 to 24 hours; unit assumed
Method: as §1, §2, §3

Row | Compound | MIC [2] | MIC [3] | MIC [4] | MIC (Escherichia coli SS) | MIC [6] | MIC [7] | MIC (Escherichia coli DC-2) | MIC [8] | MIC [9] | MIC (Candida albicans CCH 442) | MIC [10] | MIC [11] | MIC [12] | MIC [13] | MIC [14] | MIC [15] | MIC [16] | MIC [17] | MIC (Escherichia coli JUHL) | MIC [18] | further results
1 | CC[C@H]1OC(=O)[C@H](C)C(=O)[C@H](C)[C@@H](O[C@@H]2O[C@H](C)C[C@H](N(C)Cc3cccnc3)[C@H]2O)[C@](C)(OCC=Cc2cnc3ccccc3c2)C[C@@H](C)C(=O)[C@H](C)[C@H]2NC(=O)O[C@@]21C [Example 21, Compound of Formula (II); R is -CH2CH=CH-(3-quinolyl), R^p is H, W is absent, R^w is H, R^1 is CH2-(3-pyridyl), R^2 is CH3] | – | – | – | – | – | – | – | – | – | – | – | – | – | – | – | – | – | – | – | – | MIC [1]: 4 µg/mL
2 | CC[C@H]1OC(=O)[C@H](C)C(=O)[C@H](C)[C@@H](O[C@@H]2O[C@H](C)C[C@H](N(C)Cc3cccnc3)[C@H]2O)[C@](C)(OCC=Cc2cnc3ccccc3c2)C[C@@H](C)C(=O)[C@H](C)[C@H]2NC(=O)O[C@@]21C [Example 14, Compound of Formula (II); R is -CH2CH=CH-(3-quinolyl), R^p is H, W is absent, R^w is H, R^1 is CH2-(3-pyridyl), R^2 is CH3] | 0.39 µg/mL | 0.05 µg/mL | 0.25 µg/mL | 0.78 µg/mL | 0.39 µg/mL | 0.39 µg/mL | > 100 µg/mL | 0.03 µg/mL | 0.39 µg/mL | > 100 µg/mL | 0.39 µg/mL | 0.39 µg/mL | > 100 µg/mL | 50 µg/mL | 0.2 µg/mL | > 100 µg/mL | 0.39 µg/mL | 0.05 µg/mL | > 100 µg/mL | 0.05 µg/mL | MIC [5]: > 128 µg/mL; MIC [19]: 0.2 µg/mL; MIC [20]: 0.39 µg/mL; MIC [21]: 0.03 µg/mL; MIC [22]: 0.05 µg/mL; MIC [23]: 0.39 µg/mL
3 | CC[C@H]1OC(=O)[C@H](C)C(=O)[C@H](C)[C@@H](O[C@@H]2O[C@H](C)C[C@H](N(C)Cc3cccc(O)c3)[C@H]2O)[C@](C)(OCC=Cc2cnc3ccccc3c2)C[C@@H](C)C(=O)[C@H](C)[C@H]2NC(=O)O[C@@]21C [Example 22, Compound of Formula (II); R is -CH2CH=CH-(3-quinolyl), R^p is H, W is absent, R^w is H, R^1 is CH2-(3-hydroxyphenyl), R^2 is CH3] | 0.39 µg/mL | 0.1 µg/mL | 0.25 µg/mL | 0.39 µg/mL | 0.1 µg/mL | 0.1 µg/mL | > 100 µg/mL | 0.03 µg/mL | 0.39 µg/mL | > 100 µg/mL | 0.39 µg/mL | 0.39 µg/mL | > 100 µg/mL | 3.1 µg/mL | 0.1 µg/mL | > 100 µg/mL | 0.39 µg/mL | 0.1 µg/mL | > 100 µg/mL | 0.1 µg/mL | MIC [1]: 4 µg/mL; MIC [19]: 0.2 µg/mL; MIC [20]: 0.78 µg/mL; MIC [21]: 0.03 µg/mL; MIC [22]: 0.1 µg/mL; MIC [23]: 0.2 µg/mL
4 | CC[C@H]1OC(=O)[C@H](C)C(=O)[C@H](C)[C@@H](O[C@@H]2O[C@H](C)C[C@H](N(C)C3CC3)[C@H]2O)[C@](C)(OCC=Cc2cnc3ccccc3c2)C[C@@H](C)C(=O)[C@H](C)[C@H]2NC(=O)O[C@@]21C [Example 13, Compound of Formula (II); R is -CH2CH=CH-(3-quinolyl), R^p is H, W is absent, R^w is H, R^1 is cyclopropyl, R^2 is CH3] | 1.56 µg/mL | 0.2 µg/mL | 0.25 µg/mL | 3.1 µg/mL | 0.78 µg/mL | 0.39 µg/mL | > 100 µg/mL | 0.03 µg/mL | 1.56 µg/mL | 50 µg/mL | 3.1 µg/mL | 3.1 µg/mL | > 100 µg/mL | > 100 µg/mL | 0.2 µg/mL | > 100 µg/mL | 3.1 µg/mL | 0.1 µg/mL | > 100 µg/mL | 0.39 µg/mL | MIC [5]: 16 µg/mL; MIC [19]: 3.1 µg/mL; MIC [20]: 3.1 µg/mL; MIC [21]: 0.03 µg/mL; MIC [22]: 0.39 µg/mL; MIC [23]: 1.56 µg/mL
5 | CC[C@H]1OC(=O)[C@H](C)[C@@H](O[C@H]2C[C@@](C)(OC)[C@@H](O)[C@H](C)O2)[C@H](C)[C@@H](O[C@@H]2O[C@H](C)C[C@H](N(C)C)[C@H]2O)[C@](C)(O)C[C@@H](C)C(=O)[C@H](C)[C@@H](O)[C@]1(C)O [Ery. A, Erythromycin A, reference compound] | 0.39 µg/mL (≈ 0.531 µM) | 0.02 µg/mL (≈ 0.0273 µM) | 16 µg/mL (≈ 21.8 µM) | 0.78 µg/mL (≈ 1.06 µM) | 0.2 µg/mL (≈ 0.273 µM) | 6.2 µg/mL (≈ 8.45 µM) | > 100 µg/mL | 0.06 µg/mL (≈ 0.0818 µM) | 0.39 µg/mL (≈ 0.531 µM) | > 100 µg/mL | 3.1 µg/mL (≈ 4.22 µM) | 0.39 µg/mL (≈ 0.531 µM) | > 100 µg/mL | > 100 µg/mL | 0.05 µg/mL (≈ 0.0681 µM) | > 100 µg/mL | 0.39 µg/mL (≈ 0.531 µM) | 0.05 µg/mL (≈ 0.0681 µM) | > 100 µg/mL | 0.05 µg/mL (≈ 0.0681 µM) | MIC [1]: 4 µg/mL (≈ 5.45 µM); MIC [19]: 0.1 µg/mL (≈ 0.136 µM); MIC [20]: 3.1 µg/mL (≈ 4.22 µM); MIC [21]: 0.06 µg/mL (≈ 0.0818 µM); MIC [22]: 0.05 µg/mL (≈ 0.0681 µM); MIC [23]: 0.2 µg/mL (≈ 0.273 µM)
